Reference: article PMC6116579, “Catalytic and Structural Characterization of a Browning-Related Protein in Oriental Sweet Melon (Cucumis Melo var. Makuwa Makino)” (Frontiers in Chemistry, 2018)

Target: T1, BRP (browning-related protein with PPO activity; matched to endochitinase MCHT-2) (Cucumis melo, UniProt Q9AVA8)
T1 construct: native, partially purified from fruit (ammonium sulfate, DEAE Sepharose, Sephacryl S200); about 18 kDa SDS-PAGE, 37 kDa native PAGE, homodimer
T1 sequence (Q9AVA8 21-311): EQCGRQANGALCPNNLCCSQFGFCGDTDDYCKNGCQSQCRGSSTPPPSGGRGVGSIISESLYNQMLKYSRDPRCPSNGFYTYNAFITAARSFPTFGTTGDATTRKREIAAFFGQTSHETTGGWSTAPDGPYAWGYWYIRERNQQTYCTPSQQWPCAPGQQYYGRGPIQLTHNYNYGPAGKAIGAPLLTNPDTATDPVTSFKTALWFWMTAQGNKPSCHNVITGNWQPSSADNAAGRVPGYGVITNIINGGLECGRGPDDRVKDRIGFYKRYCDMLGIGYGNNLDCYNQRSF
Experiment: absorbance at […] nm, Lineweaver-Burk
Type: biochemical
Conditions: oxidation by air oxygen; 0.05 M Tris-HCl pH 7.0, 25 °C

- Km: 42.8 mM
Compound: Oc1cccc(O)c1O [Pyrogallol]
